≈ marks a conversion by molar mass, not a printed value. Read-outs that look alike come from different tables or passages of the source.
Key:
[1] = Saturated solubility of eszopiclone in various solvents (shake flask, HPLC); assay type: physicochemical; settings: thermodynamic from solid, room temperature
Procedure: 1) 100 mL of the solvent was placed into a 250 mL volumetric flask.
2) 10 mg of eszopiclone was added to the flask.
3) The flask contents were mixed for 24 hours using a rotary shaker to dissolve the eszopiclone completely.
4) Eszopiclone was added at room temperature to the clear solution of 3) in small amounts (up to about 100 mg) until undissolved eszopiclone was noted after shaking.
5) The flask was subjected to shaking for an additional 24 hours.
6) Presence of insoluble eszopiclone was checked and the pH of the solution was recorded.
7) A portion of step 6) solution was subjected to centrifugation until a clear solution was obtained, and/or was filtered through an ASTM #40 mesh sieve.
8) Content of the drug substance was determined using HPLC, comparing with a standard solution prepared preferably in the same solvent.
9) Amount of the drug substance dissolved was calculated as a percentage (weight/volume): […]
The actual amount of drug substance dissolved in mg is:
The solubility of the drug substance in mg/ml in the solvent medium tested is: S=m÷100.
Saturated solubility was determined in solvents as described below.

[2] = Excipient compatibility and stability study of eszopiclone/excipient mixtures (impurity analysis before and after storage); assay type: physicochemical
Procedure: 1) Eszopiclone and excipient in the stated ratios were mixed well and sifted through an ASTM #40 mesh sieve.
2) The mixture was placed into 20 mL amber glass vials and stored under conditions of 40° C. and 75% relative humidity (RH), or at 50° C., for 1 month. Impurity analyses were performed before and after storage, and values in the table below are percentages of the initial eszopiclone content.

[3] = cited from earlier work
[4] = Observed susceptibility of eszopiclone to degradation; assay type: physicochemical; settings: with significant increase in the 5-chloro-2-aminopyridine content
[5] = 1 Month, 40° C./75% RH, amber glass vials
[6] = 1 Month, 50° C., amber glass vials

## CN1CCN(C(=O)O[C@H]2c3nccnc3C(=O)N2c2ccc(Cl)cn2)CC1 [Eszopiclone, (+)-(5S)-6-(5-chloropyridin-2-yl)-7-oxo-6,7-dihydro-[3,4-b]pyrazin-5-yl-4-methylpiperazine-1-carboxylate]
[1]; aqueous buffer, Acetate buffer (pH 4.5)
  solubility at 24 h: 11600 µg/mL (≈ 29.9 mM)
[1]; aqueous buffer, Phosphate buffer (pH 6.8)
  solubility at 24 h: 680 µg/mL (≈ 1.75 mM)
[1]; aqueous buffer, Phosphate buffer (pH 7.5)
  solubility at 24 h: 330 µg/mL (≈ 0.849 mM)
[1]; aqueous with cosolvent or surfactant or cyclodextrin, 0.5% Sodium lauryl sulphate in water
  solubility at 24 h: 1830 µg/mL (≈ 4.71 mM)
[1]; simulated gastric fluid, 0.01N HCl
  solubility at 24 h: 4180 µg/mL (≈ 10.8 mM)
[1]; simulated gastric fluid, 0.1N Hydrochloric acid (pH 1.2)
  solubility at 24 h: 39100 µg/mL (≈ 101 mM)
[1]; simulated gastric fluid, Acid buffer (pH 1), potassium chloride/HCl
  solubility at 24 h: 23000 µg/mL (≈ 59.2 mM)
[1]; Simulated gastric fluid (pH 1.2)
  solubility at 24 h: 8180 µg/mL (≈ 21 mM)
[1]; Water
  solubility at 24 h: 300 µg/mL (≈ 0.772 mM)
[2]; [5]
  Imp (5-chloro-2-aminopyridine): 0.47 percentages of the initial eszopiclone content
  T.I. (Total impurities): 0.33 percentages of the initial eszopiclone content
[2]; [6]
  Imp (5-chloro-2-aminopyridine): 0.35 percentages of the initial eszopiclone content
  T.I. (Total impurities): 0.5 percentages of the initial eszopiclone content
[2]; Initial
  Imp (5-chloro-2-aminopyridine): 0.01 percentages of the initial eszopiclone content
  T.I. (Total impurities): 0.02 percentages of the initial eszopiclone content
[3]; in ethanol
  Solubility (descriptive): slightly soluble
[3]; in phosphate buffer of pH 3.2
  Solubility (descriptive): soluble
[3]; in water
  Solubility (descriptive): very slightly soluble
[4]
  Susceptibility to oxidative degradation (including by atmospheric oxygen) and acid hydrolysis: highly susceptible

— US20090269409A1, “PHARMACEUTICAL COMPOSITIONS COMPRISING ESZOPICLONE” (priority 2008, published 2009)
